# How the values were obtained:
# hM4 receptors = biological target: T1, hM4 receptors (Homo sapiens, UniProt P08173); assay: Human M4 PAM pERK assay; format: cell-based; details: CHO cells expressing hM4; EC20 of acetylcholine (10 nM final); TR-FRET
# T1 construct: expressed in transfected cells; host or cells: CHO cells
# T1 sequence (P08173 1-479): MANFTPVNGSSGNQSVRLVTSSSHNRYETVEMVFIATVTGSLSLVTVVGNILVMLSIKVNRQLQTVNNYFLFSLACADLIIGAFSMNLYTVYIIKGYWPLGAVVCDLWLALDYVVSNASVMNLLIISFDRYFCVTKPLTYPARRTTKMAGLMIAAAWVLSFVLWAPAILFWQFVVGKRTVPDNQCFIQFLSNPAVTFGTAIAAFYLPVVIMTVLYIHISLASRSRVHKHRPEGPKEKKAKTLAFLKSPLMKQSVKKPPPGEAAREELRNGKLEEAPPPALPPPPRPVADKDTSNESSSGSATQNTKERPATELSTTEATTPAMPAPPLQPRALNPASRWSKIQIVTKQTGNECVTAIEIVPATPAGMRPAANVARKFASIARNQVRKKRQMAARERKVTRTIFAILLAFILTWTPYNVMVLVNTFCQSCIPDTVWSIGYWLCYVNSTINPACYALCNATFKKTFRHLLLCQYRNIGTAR
# rM4 receptors = biological target: T2, rM4 receptors (Rattus norvegicus, UniProt P08485); assay: Rat M4 PAM pERK assay; format: cell-based; details: CHO cells expressing rM4; EC20 of acetylcholine (10 nM final); TR-FRET
# T2 construct: expressed in transfected cells; host or cells: CHO cells
# T2 sequence (P08485 1-478): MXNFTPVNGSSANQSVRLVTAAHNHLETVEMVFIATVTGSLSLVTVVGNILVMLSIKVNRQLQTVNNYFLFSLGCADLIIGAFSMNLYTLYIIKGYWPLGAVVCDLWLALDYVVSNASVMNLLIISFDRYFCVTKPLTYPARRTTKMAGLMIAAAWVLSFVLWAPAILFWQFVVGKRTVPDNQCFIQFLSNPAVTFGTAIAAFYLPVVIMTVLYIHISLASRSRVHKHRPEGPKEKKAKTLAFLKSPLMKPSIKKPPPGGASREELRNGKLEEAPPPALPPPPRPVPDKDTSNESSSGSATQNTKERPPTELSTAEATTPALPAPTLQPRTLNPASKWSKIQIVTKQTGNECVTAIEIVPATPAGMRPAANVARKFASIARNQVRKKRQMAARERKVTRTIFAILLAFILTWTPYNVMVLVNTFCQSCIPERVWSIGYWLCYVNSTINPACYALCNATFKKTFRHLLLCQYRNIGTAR
# human M4 receptor = biological target: T3, human M4 receptor (Homo sapiens, UniProt P08173); assay: M4 GTPγS PAM assay; format: biochemical; details: membranes of CHO-K1 cells stably expressing human M4; EC20 acetylcholine 40 nM; 35S-GTP
# T3 construct: expressed in transfected cells
# T3 sequence (P08173 1-479): T1 sequence (P08173 1-479)
# Procedure, shortened: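 CHO-K1 membranes stably expressing human M4, preincubated with compound and 0.1 μM GDP (final) in 20 mM HEPES, 10 mM MgCl2, 100 mM NaCl, pH 7.4, then EC20 acetylcholine (40 nM final). 35S-GTPγS binding 1 h at room temperature, filtration and scintillation counting.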
Structure (SMILES),EC50 (hM4 receptors),EC50 (rM4 receptors),EC50 (human M4 receptor)
"Cc1nc2c(c(OC3CC3)n1)CN(C(=O)CC1CN(c3cccnc3)C1)C2 [Compound I-48, 1-(4-Cyclopropoxy-2-methyl-5,7-dihydro-6H-pyrrolo[3,4-d]pyrimidin-6-yl)-2-(1-(pyridin-3-yl)azetidin-3-yl)ethan-1-one]",500 to 2000 nM,≥ 2000 nM,≥ 2000 nM
"Cc1nc2c(c(OCC3CC3)n1)CN(C(=O)CC1CN(c3ccnc(C(F)(F)F)c3)C1)C2 [Compound I-50, 1-(4-(Cyclopropylmethoxy)-2-methyl-5,7-dihydro-6H-pyrrolo[3,4-d]pyrimidin-6-yl)-2-(1-(2-(trifluoromethyl)pyridin-4-yl)azetidin-3-yl)ethan-1-one]",≥ 2000 nM,≥ 2000 nM,≥ 2000 nM
"COc1nc2c(c(OC)n1)CN(C(=O)CC1CN(c3ccnc(C(F)(F)F)c3)C1)C2 [Compound I-64, 1-(2,4-Dimethoxy-5,7-dihydro-6H-pyrrolo[3,4-d]pyrimidin-6-yl)-2-(1-(2-(trifluoromethyl)pyridin-4-yl)azetidin-3-yl)ethan-1-one]",100 to 500 nM,≥ 2000 nM,500 to 2000 nM
"COc1nc2c(c(C3CCC3)n1)CN(C(=O)CC1CN(c3ccnc(C(F)(F)F)c3)C1)C2 [Compound I-74, 1-(4-Cyclobutyl-2-methoxy-5,7-dihydro-6H-pyrrolo[3,4-d]pyrimidin-6-yl)-2-(1-(2-(trifluoromethyl)pyridin-4-yl)azetidin-3-yl)ethan-1-one]",≥ 2000 nM,≥ 2000 nM,≥ 2000 nM
"COc1nc(C)c2c(n1)CN(C(=O)CC1CN(c3ccnc(C(F)(F)F)c3)C1)C2 [Compound I-75, 1-(2-Methoxy-4-methyl-5,7-dihydro-6H-pyrrolo[3,4-d]pyrimidin-6-yl)-2-(1-(2-(trifluoromethyl)pyridin-4-yl)azetidin-3-yl)ethan-1-one]",100 to 500 nM,≥ 2000 nM,100 to 500 nM
"COc1nc2c(c(OC(F)F)n1)CN(C(=O)CC1CN(c3cccnc3)C1)C2 [Compound I-76, 1-(4-(Difluoromethoxy)-2-methoxy-5,7-dihydro-6H-pyrrolo[3,4-d]pyrimidin-6-yl)-2-(1-(pyridin-3-yl)azetidin-3-yl)ethan-1-one]",≥ 2000 nM,≥ 2000 nM,≥ 2000 nM
"COc1nc(C2CC2)nc2c1CN(C(=O)CC1CN(c3ccnc(C(F)(F)F)c3)C1)C2 [Compound I-79, 1-(2-Cyclopropyl-4-methoxy-5,7-dihydro-6H-pyrrolo[3,4-d]pyrimidin-6-yl)-2-(1-(2-(trifluoromethyl)pyridin-4-yl)azetidin-3-yl)ethan-1-one]",500 to 2000 nM,500 to 2000 nM,100 to 500 nM
